According to ChEMBL document CHEMBL1201862, “PubChem BioAssay data set” (2004):
“And” between values parts separate entries of the source, which are not always exact repeats. Identical values can stand only once.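 Results reflect a 48-hour exposure of cells in 96-well plates to compound at five concentrations. GI50 is the concentration that inhibits growth by half.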 The source made the active and inactive calls. Rule as the data show it: active = GI50 up to about 1.1 µM and inactive = higher.

What was measured:
Experiment in all cases: DTP human tumour cell line panel, 48 h
[1] = system: ACHN
[2] = system: BT-549
[3] = system: COLO 205
[4] = system: HCC 2998
[5] = system: HT-29
[6] = system: K562
[7] = system: MDA-MB-435
[8] = system: MOLT-4
[9] = system: Malme-3M
[10] = system: NCI-H226
[11] = system: NCI-H23
[12] = system: OVCAR-3
[13] = system: PC-3
[14] = system: SF-295
[15] = system: SK-MEL-28
[16] = system: SK-MEL-2
[17] = system: SNB-19
[18] = system: SW-620
[19] = system: UO-31

SMILES	GI50 [1]	GI50 [2]	GI50 [3]	GI50 [4]	GI50 [5]	GI50 [6]	GI50 [7]	GI50 [8]	GI50 [9]	GI50 [10]	GI50 [11]	GI50 [12]	GI50 [13]	GI50 [14]	GI50 [15]	GI50 [16]	GI50 [17]	GI50 [18]	GI50 [19]
O=c1[nH]c2cc([N+](=O)[O-])c(Nc3c4ccccc4nc4ccccc34)c([N+](=O)[O-])c2[nH]1	1.98 µM (inactive)	6.53 µM (inactive)	2.1 µM (inactive)	1.73 µM (inactive)	1.98 µM (inactive)	2.42 µM (inactive)	2.77 µM (inactive)	0.938 µM (active)	1.77 µM (inactive)	3.13 µM (inactive)	3.49 µM (inactive)	2.58 µM (inactive)	3.32 µM (inactive)	2.65 µM (inactive)	3.27 µM (inactive)	2.72 µM (inactive)	5.02 µM (inactive)	2.31 µM (inactive)	2.09 µM (inactive)
CC(C)(C)NCCC(O)c1cc(C(F)(F)F)nc2c(C(F)(F)F)cccc12 (stereo not given)	8.3 µM (inactive)	8.11 µM (inactive)	10.7 µM (inactive)	2.43 µM (inactive)	6.08 µM (inactive)	5.14 µM (inactive)	12.9 µM (inactive)	4.12 µM (inactive)	11.6 µM (inactive)	17.3 µM (inactive)	4.26 µM (inactive)	8.38 µM (inactive)	8.57 µM (inactive)	8.75 µM (inactive)	15.7 µM (inactive)	11.2 µM (inactive)	13.6 µM (inactive)	18 µM (inactive)	0.502 µM (active)
O=c1[nH]c2[nH]c(-c3ccc(Br)cc3)cc2c2ccccc12	66.8 µM (inactive)	76.4 µM (inactive)	34.7 µM (inactive)	> 100 µM (inactive)	35.6 µM (inactive)	27.1 µM (inactive)	> 100 µM (inactive)	12 µM (inactive)	> 100 µM (inactive)	43.5 µM (inactive)	> 100 µM (inactive)	> 100 µM (inactive)	> 100 µM (inactive)	70 µM (inactive)	> 100 µM (inactive)	> 100 µM (inactive)	29.4 µM (inactive)	> 100 µM (inactive)	> 100 µM (inactive)
Cc1ccc([C@H]2CC(=O)C[C@H](c3ccc(C)cc3)C23C(=O)c2ccccc2C3=O)cc1	63.4 µM (inactive)	34.3 µM (inactive)	37.2 µM (inactive)	57.3 µM (inactive)	67.3 µM (inactive)	23.3 µM (inactive)	41.3 µM (inactive)	27 µM (inactive)	46.7 µM (inactive)	34.5 µM (inactive)	> 100 µM (inactive)	41.9 µM (inactive)	14.9 µM (inactive)	21.1 µM (inactive)	> 100 µM (inactive)	31.2 µM (inactive)	26.9 µM (inactive)	94.6 µM (inactive)	> 100 µM (inactive)
S=c1nc(N/N=C/c2cccs2)c2cn[nH]c2[nH]1	26.8 µM (inactive)	> 100 µM (inactive)	6.87 µM (inactive)	10.1 µM (inactive)	29.5 µM (inactive)	16.3 µM (inactive)	16.3 µM (inactive)	14 µM (inactive)	41.4 µM (inactive)	92 µM (inactive)	21.2 µM (inactive)	9.25 µM (inactive)	15.1 µM (inactive)	12.4 µM (inactive)	46.7 µM (inactive)	58.2 µM (inactive)	58.2 µM (inactive)	37.1 µM (inactive)	> 100 µM (inactive)
Cn1cc2c(=O)n3ncn(-c4ccc(Br)cc4)c3nc2n1	> 100 µM (inactive)	> 100 µM (inactive)	> 100 µM (inactive)	> 100 µM (inactive)	> 100 µM (inactive)	> 100 µM (inactive)	> 100 µM (inactive)	> 100 µM (inactive)	> 100 µM (inactive)	> 100 µM (inactive)	> 100 µM (inactive)	> 100 µM (inactive)	> 100 µM (inactive)	> 100 µM (inactive)	> 100 µM (inactive)	> 100 µM (inactive)	> 100 µM (inactive)	> 100 µM (inactive)	> 100 µM (inactive)
O=C1N/C(=N/N=C\C(O)C(O)C(O)CO)N/C1=C/c1ccc(Cl)cc1 (stereo not given)	18.1 µM (inactive) and 17.8 µM (inactive)	30.7 µM (inactive) and 23.9 µM (inactive)	42.6 µM (inactive) and 30.1 µM (inactive)	> 10 µM (inactive)	44.5 µM (inactive) and 31.8 µM (inactive)	27.3 µM (inactive) and 27.2 µM (inactive)	59.4 µM (inactive) and 43.8 µM (inactive)	18.5 µM (inactive) and 16.3 µM (inactive)	20.9 µM (inactive) and 17 µM (inactive)	21 µM (inactive) and 22.2 µM (inactive)	30.3 µM (inactive) and 42.8 µM (inactive)	21.6 µM (inactive) and 17.2 µM (inactive)	42.8 µM (inactive) and 37.5 µM (inactive)	41.5 µM (inactive)	> 100 µM (inactive) and 64.6 µM (inactive)	30.5 µM (inactive) and 40.1 µM (inactive)	27 µM (inactive) and 29 µM (inactive)	60.5 µM (inactive) and 52.1 µM (inactive)	28.8 µM (inactive) and 31.7 µM (inactive)
CC(=O)NNc1nc(C)c(C(/C=C/c2ccccc2O)=N/N=C(N)N)s1	> 100 µM (inactive)	> 100 µM (inactive)	> 100 µM (inactive)	> 100 µM (inactive)	> 100 µM (inactive)	> 100 µM (inactive)	> 100 µM (inactive)	> 100 µM (inactive)	> 100 µM (inactive)	> 100 µM (inactive)	> 100 µM (inactive)	> 100 µM (inactive)	> 100 µM (inactive)	> 100 µM (inactive)	> 100 µM (inactive)	> 100 µM (inactive)	> 100 µM (inactive)	> 100 µM (inactive)	> 100 µM (inactive)
O=C1/C(=C/c2cccc(F)c2)CCCc2ccccc21	19.1 µM (inactive)	17.6 µM (inactive)	20.3 µM (inactive)	14.7 µM (inactive)	13.2 µM (inactive)	15.1 µM (inactive)	16.2 µM (inactive)	17.7 µM (inactive)	11.6 µM (inactive)	14.6 µM (inactive)	20.4 µM (inactive)	15.3 µM (inactive)	15.7 µM (inactive)	16.1 µM (inactive)	16.6 µM (inactive)	16.2 µM (inactive)	16 µM (inactive)	16.9 µM (inactive)	16.3 µM (inactive)
CC(=O)N1N(c2ccc([N+](=O)[O-])cc2)C(=O)C1(C)C	19.7 µM (inactive)	11.9 µM (inactive)	15.5 µM (inactive)	15.8 µM (inactive)	16.6 µM (inactive)	17 µM (inactive)	20.6 µM (inactive)	15.5 µM (inactive)	19.6 µM (inactive)	21.1 µM (inactive)	16.7 µM (inactive)	19.3 µM (inactive)	15.7 µM (inactive)	31.4 µM (inactive)	17.9 µM (inactive)	19.1 µM (inactive)	50.4 µM (inactive)	13.4 µM (inactive)	17.1 µM (inactive)
CN1CCC23c4c5ccc(Oc6nnnn6-c6ccccc6)c4OC2c2[nH]c4ccccc4c2CC3(O)C1C5 (stereo not given)	1.74 µM (inactive)	16.5 µM (inactive)	2.29 µM (inactive)	1.81 µM (inactive)	2.38 µM (inactive)	1.81 µM (inactive)	4.01 µM (inactive)	1.84 µM (inactive)	1.67 µM (inactive)	10.8 µM (inactive)	16.3 µM (inactive)	9.4 µM (inactive)	3.68 µM (inactive)	3.95 µM (inactive)	2.1 µM (inactive)	1.78 µM (inactive)	7.66 µM (inactive)	2.44 µM (inactive)	1.75 µM (inactive)
COC(=O)/C=C\C(C#N)(C#N)/N=C/c1sccc1C	1.87 µM (inactive)	3.15 µM (inactive)	1.22 µM (inactive)	15.2 µM (inactive)	1.73 µM (inactive)	3.3 µM (inactive)	3.58 µM (inactive)	1.2 µM (inactive)	3.18 µM (inactive)	3.33 µM (inactive)	7.03 µM (inactive)	5.05 µM (inactive)	7.6 µM (inactive)	18.2 µM (inactive)	4.88 µM (inactive)	15.8 µM (inactive)	17.3 µM (inactive)	1.58 µM (inactive)	1.77 µM (inactive)
CC1=C(Nc2c(C)cc(O)cc2O)C(=O)C=c2oc3c(c21)C(C)=C(Nc1c(C)cc(O)cc1O)C(=O)C=3	> 100 µM (inactive)	32.9 µM (inactive)	20.8 µM (inactive)	23.2 µM (inactive)	28 µM (inactive)	34 µM (inactive)	15.9 µM (inactive)	27.4 µM (inactive)	21.9 µM (inactive)	43.9 µM (inactive)	20.3 µM (inactive)	15.6 µM (inactive)	24.2 µM (inactive)	24.4 µM (inactive)	52.5 µM (inactive)	34.1 µM (inactive)	35.8 µM (inactive)	35.5 µM (inactive)	50.8 µM (inactive)
CCOC(=O)C(C(=O)OCC)=C1SC(=N\c2ccccc2)/C(=N/c2ccccc2)N1c1ccccc1	64 µM (inactive)	> 100 µM (inactive)	> 100 µM (inactive)	45.8 µM (inactive)	82.2 µM (inactive)	4.48 µM (inactive)	> 100 µM (inactive)	13.3 µM (inactive)	> 100 µM (inactive)	> 100 µM (inactive)	> 100 µM (inactive)	35.8 µM (inactive)	58.7 µM (inactive)	27 µM (inactive)	> 100 µM (inactive)	> 100 µM (inactive)	> 100 µM (inactive)		> 100 µM (inactive)
